Data from patent US8273740B2, “2-sulfanyl-benzoimidazol-1-yi-acetic acid derivatives as CRTH2 antagonists” (Actelion Pharmaceuticals, Ltd., priority 2004, dated 2012).

Target: T1, hCRTH2 receptor (Homo sapiens, UniProt Q9Y5Y4)
T1 construct: expressed in transfected cells; host or cells: clonal HEK 293 cell line (membranes)
T1 sequence (Q9Y5Y4 1-395): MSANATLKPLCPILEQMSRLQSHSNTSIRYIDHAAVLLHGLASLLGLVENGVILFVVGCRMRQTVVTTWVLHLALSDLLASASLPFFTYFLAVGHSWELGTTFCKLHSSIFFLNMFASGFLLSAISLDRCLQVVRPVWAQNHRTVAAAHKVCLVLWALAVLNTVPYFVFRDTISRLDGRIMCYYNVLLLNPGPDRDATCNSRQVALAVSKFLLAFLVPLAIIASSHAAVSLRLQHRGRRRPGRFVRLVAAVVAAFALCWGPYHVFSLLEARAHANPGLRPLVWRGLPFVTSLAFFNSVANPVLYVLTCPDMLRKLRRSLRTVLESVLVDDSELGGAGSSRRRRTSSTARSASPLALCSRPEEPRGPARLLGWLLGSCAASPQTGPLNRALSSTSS
Test: Intracellular calcium mobilization assay (FLIPR), antagonism of prostaglandin D2
Type: cell-based
Details: not given
Source text: A functional assay with cells expressing the human CRTH2 receptor may be used to detect changes in the levels of intracellular calcium concentration following compound treatment. After addition of the compound the cells are challenged with PGD2. […] The relative values of the remaining activity were used to determine IC50 values by curve fitting the data to a single site to a four-parameter logistic sigmoid dose response curve of the equation (A+((B−A)/(1+((C/x)^D)))).
The ability of the compounds to inhibit PGD2 induced change of intracellular calcium levels via CRTH2 activation may be measured by methods known of one skilled in the art or by the method described below in the experimental part.
Intracellular Calcium Mobilization Assay (FLIPR):
Cells are detached from culture dishes using a dissociation buffer (0.02% EDTA in PBS, Gibco) for 1 min, and collected by centrifugation at 200 g at rt for 5 min in assay buffer [equal parts of Hank's BSS (HBSS, Bioconcept) and DMEM (low glucose, without phenol red, Gibco)].
Stock solutions of test compounds are made up at a concentration of 10 mM in DMSO, and serially diluted in assay buffer to concentrations required for inhibition dose response curves. Prostaglandin D2 (Biomol, Plymouth Meeting, Pa.) is used as an agonist.
A FLIPR384 instrument (Molecular Devices) is operated according to the manufacturer's standard instructions, adding 4 μl of test compound dissolved at 10 mM in DMSO and diluted prior to the experiment in assay buffer to obtain the desired final concentration. An assay buffer containing 10 μl of 80 nM prostaglandin D2 (Biomol, Plymouth Meeting, Pa.), supplemented with 0.8% bovine serum albumin (fatty acid content <0.02%, Sigma), is then added to obtain a final concentration of 10 nM and 0.1%, respectively. […] Emission peak values above base level after prostaglandin D2 addition are exported after base line subtraction. Values are normalized to high-level control (no test compound added) after subtraction of base line value (no prostaglandin D2 added). The program XL1fit 3.0 (IDBS) is used to fit the data to a single site dose response curve of the equation (A+((B−A)/(1+((C/x)^D)))) and to calculate the IC50 values.

Structure (SMILES) | IC50 [nM]
CCCCNC(=O)c1ccc(OC)c(CSc2nc3cc(F)ccc3n2CC(=O)O)c1 [[2-(5-Butylcarbamoyl-2-methoxy-benzylsulfanyl)-5-fluoro-benzoimidazol-1-yl]-acetic acid] | 21

Same assay, conditions: HEK-293 cells expressing hCRTH2, agonist prostaglandin D2 10 nM; read-out: hCRTH2 FLIPR IC50

Structure (SMILES) | IC50 [nM]
CCOC(=O)c1ccc(N(CCCSc2nc3ccccc3n2CC(=O)O)C(=O)CC(c2ccccc2)c2ccccc2)cc1 | 128
CCCC(=O)N1CCCC(CSc2nc3cc(Cl)c(Cl)cc3n2CC(=O)O)C1 (centres unmarked) [[2-(1-Butyryl-piperidin-3-ylmethylsulfanyl)-5,6-dichloro-benzoimidazol-1-yl]-acetic acid] | 148

Further lines, results first:

IC50 [nM] | Structure (SMILES)
88 | O=C(O)Cn1c(SCC2CCN(C(=O)c3ccc(Br)cc3)C2)nc2cc(F)ccc21 (racemic)
212 | O=C(O)Cn1c(SCCC(c2ccccc2)c2ccccc2)nc2ccc([N+](=O)[O-])cc21 [[2-(3,3-Diphenyl-propylsulfanyl)-6-nitro-benzoimidazol-1-yl]-acetic acid]
201 | COC(=O)c1ccc(OC)c(CSc2nc3ccccc3n2CC(=O)O)c1
15 | COC(=O)c1cccc(CSc2nc3cc([N+](=O)[O-])ccc3n2CC(=O)O)c1 [[2-(3-Methoxycarbonyl-benzylsulfanyl)-5-nitro-benzoimidazol-1-yl]-acetic acid]
4 | COc1ccc(C(=O)N2CCc3ccccc32)cc1CSc1nc2cc(F)ccc2n1CC(=O)O [{2-[5-(2,3-Dihydro-indole-1-carbonyl)-2-methoxy-benzylsulfanyl]-5-fluoro-benzoimidazol-1-yl}-acetic acid]
156 | O=C(O)Cn1c(SCC2CCCN(C(=O)c3cccc(Cl)c3)C2)nc2ccccc21 (racemic)

Target: T1, hCRTH2 receptor
Test: CRTH2 membranes radioligand binding assay ({3H}-PGD2); antagonist binding to the CRTH2 receptor
Details: {3H}-PGD2 radioligand binding, membranes of HEK 293 cells expressing recombinant hCRTH2; read-out: hCRTH2 BDG IC50
Protocol: Preparation of CRTH2 Membranes and Radioligand Binding Assay:
Cells are detached from culture plates in 5 ml buffer A per plate (5 mM Tris, 1 mM MgCl2x6H2O, 0.1 mM PMSF, 0.1 mM phenanthroline) using a police rubber and transferred into centrifugation tubes and frozen at −80° C. After thawing, the cells are centrifuged at 500 g for 5 min and then resuspended in buffer A. Cells are then fragmented by homogenization with a Polytron homogenizer for 30 s. The membrane fragments are centrifuged at 3000 g for 40 min and resuspended in membranes in buffer B (50 mM Tris, 25 mM MgCl2, 250 mM saccharose, pH 7.4) and aliquots are stored frozen.
Binding assay is performed in a total volume of 250 μl. […] For unspecific binding, PGD2 is added to the reaction mixture at 1 μM final concentration. This binding assay mix is incubated at rt for 90 min and then filtered through a GF/C filter plate. The filter is washed three times with ice cold binding buffer. Then, 40 μl per well Microscint-40 (Packard) are added and the bound radioactivity is quantified by means of Topcount (Packard).

Structure (SMILES) | IC50 [nM]
CCCCC(=O)N(CCCSc1nc2ccccc2n1CC(=O)O)CC(c1ccccc1)c1ccccc1 [(2-{3-[(2,2-Diphenyl-ethyl)-pentanoyl-amino]-propylsulfanyl}-benzoimidazol-1-yl)-acetic acid] | 15
CCCC(=O)N1CCCC(CSc2nc3ccccc3n2CC(=O)O)C1 (racemic) | 22
CCCCOC(=O)N(CCCSc1nc2cc([N+](=O)[O-])ccc2n1CC(=O)O)CCc1ccccc1 [{2-[3-(Butoxycarbonyl-phenethyl-amino)-propylsulfanyl]-5-nitro-benzoimidazol-1-yl}-acetic acid] | 1
COc1ccc(C(C)=O)cc1CSc1nc2ccccc2n1CC(=O)O [[2-(5-Acetyl-2-methoxy-benzylsulfanyl)-benzoimidazol-1-yl]-acetic acid] | 9
CCCC(=O)N1CCCC(CSc2nc3cc(Cl)c(Cl)cc3n2CC(=O)O)C1 (centres unmarked) [[2-(1-Butyryl-piperidin-3-ylmethylsulfanyl)-5,6-dichloro-benzoimidazol-1-yl]-acetic acid] | 4
CCOC(=O)c1ccc(N(CCCSc2nc3ccccc3n2CC(=O)O)C(=O)C(c2ccccc2)C2CCCCC2)cc1 (racemic) | 7

Second part, the compound after the results:

IC50 [nM] | Structure (SMILES)
2 | CC(=O)c1ccc(OCCCO)c(CSc2nc3cc(F)ccc3n2CC(=O)O)c1 [{2-[5-Acetyl-2-(3-hydroxy-propoxy)-benzylsulfanyl]-5-fluoro-benzoimidazol-1-yl}-acetic acid]
12 | CCCCC(=O)N(CCCSc1nc2ccccc2n1CC(=O)O)CCc1ccccc1 [{2-[3-(Pentanoyl-phenethyl-amino)-propylsulfanyl]-benzoimidazol-1-yl}-acetic acid]
13 | COc1ccc(C(C)=O)cc1CSc1nc2cc(F)ccc2n1C(C)C(=O)O (racemic)
6 | COc1ccc(C(C)=O)cc1CSc1nc2cc(C=O)ccc2n1CC(=O)O [[2-(5-Acetyl-2-methoxy-benzylsulfanyl)-5-formyl-benzoimidazol-1-yl]-acetic acid]
23 | O=C(O)Cn1c(SCC2CCN(C(=O)c3ccc(Br)cc3)C2)nc2cc(F)ccc21 (racemic)
10 | CCCCOC(=O)N(CCCSc1nc2ccccc2n1CC(=O)O)CCc1ccccc1
18 | O=C(O)Cn1c(SCC2CCCN(C(=O)c3ccc(Br)cc3)C2)nc2ccccc21 (racemic)
15 | COC(=O)c1cccc(CSc2nc3cc([N+](=O)[O-])ccc3n2CC(=O)O)c1 [[2-(3-Methoxycarbonyl-benzylsulfanyl)-5-nitro-benzoimidazol-1-yl]-acetic acid]
